The results in this text go back to the OligoGym collection.

HELM strings list units from the 5' end as sugar, base in round brackets, then linkage (d deoxyribose, r ribose, m 2'-O-methyl, p phosphodiester). Strings are as the collection lists them; they lack the last nucleoside at the 3' end of the tested compound. [moe] = 2'-O-(2-methoxyethyl) (MOE); [sp] = phosphorothioate linkage; [m5C] = 5-methylcytosine

The data set has as its target ATXN2. In words: mouse, dose not given. The conditions noted are these: ASO.

Regarding “RNA1{[moe](A)[sp].[moe](G)p.[moe](T)p.[moe](G)p.[moe](T)p.d(T)[sp].d(T)[sp].d(G)[sp].d(G)[sp].d(G)[sp].d(A)[sp].d(T)[sp].d(G)[sp].d([m5C])[sp].d(T)[sp].[moe](T)p.[moe]([m5C])p.[moe](A)[sp].[moe](G)}$$$$ (last 3' nucleoside missing)”, the 3 h FOB score is 6.5 score 0-7.

On to “RNA1{[moe](G)[sp].[moe]([m5C])[sp].[moe](T)[sp].[moe](A)[sp].[moe](A)[sp].d([m5C])[sp].d(T)[sp].d(G)[sp].d(G)[sp].d(T)[sp].d(T)[sp].d(T)[sp].d(G)[sp].d([m5C])[sp].d([m5C])[sp].[moe]([m5C])[sp].[moe](T)[sp].[moe](T)[sp].[moe](G)}$$$$ (last 3' nucleoside missing)”, for which the 3 h FOB score was 7 score 0-7.

“RNA1{[moe](T)[sp].[moe](T)p.[moe](A)p.[moe]([m5C])p.[moe](T)p.d(G)[sp].d(T)[sp].d(T)[sp].d(T)[sp].d([m5C])[sp].d(G)[sp].d(A)[sp].d([m5C])[sp].d([m5C])[sp].d(T)[sp].[moe]([m5C])p.[moe](T)p.[moe](G)[sp].[moe](A)}$$$$ (last 3' nucleoside missing)”: the 3 h FOB score is 4.5 score 0-7.

For “RNA1{[moe](G)[sp].[moe](T)p.[moe](T)p.[moe](A)p.[moe]([m5C])p.d(T)[sp].d(G)[sp].d(T)[sp].d(T)[sp].d(T)[sp].d([m5C])[sp].d(G)[sp].d(A)[sp].d([m5C])[sp].d([m5C])[sp].[moe](T)p.[moe]([m5C])p.[moe](G)[sp].[moe](G)}$$$$ (last 3' nucleoside missing)”, the 3 h FOB score worked out at 4.5 score 0-7.

Substance “RNA1{[moe](G)[sp].[moe](A)p.[moe]([m5C])p.[moe](A)p.[moe](T)p.d(G)[sp].d([m5C])[sp].d(G)[sp].d(G)[sp].d(T)[sp].d(T)[sp].d(T)[sp].d([m5C])[sp].d(A)[sp].d([m5C])[sp].[moe]([m5C])p.[moe](A)p.[moe](T)[sp].[moe](T)}$$$$ (last 3' nucleoside missing)” registered a 3 h FOB score of 4 score 0-7.

In turn, “RNA1{[moe]([m5C])[sp].[moe](T)p.[moe]([m5C])p.[moe](T)p.[moe]([m5C])p.d([m5C])[sp].d(A)[sp].d(T)[sp].d(T)[sp].d(A)[sp].d(T)[sp].d(T)[sp].d(T)[sp].d([m5C])[sp].d(T)[sp].[moe](T)p.[moe]([m5C])p.[moe](A)[sp].[moe]([m5C])}$$$$ (last 3' nucleoside missing)” came in with a 3 h FOB score of 4 score 0-7.

The substance “RNA1{[moe]([m5C])[sp].[moe](T)p.[moe](T)p.[moe](A)p.[moe](G)p.[moe](A)p.d(G)[sp].d(T)[sp].d(T)[sp].d(T)[sp].d(T)[sp].d(T)[sp].d(G)[sp].d([m5C])[sp].d([m5C])[sp].d(T)[sp].[moe](T)p.[moe]([m5C])[sp].[moe]([m5C])}$$$$ (last 3' nucleoside missing)” came in with a 3 h FOB score of 4.5 score 0-7.

“RNA1{[moe](A)[sp].[moe](T)p.[moe](G)p.[moe]([m5C])p.[moe](A)p.d(A)[sp].d([m5C])[sp].d(T)[sp].d(T)[sp].d(A)[sp].d(A)[sp].d(T)[sp].d(A)[sp].d(A)[sp].d([m5C])[sp].[moe]([m5C])p.[moe](T)p.[moe](T)[sp].[moe](A)}$$$$ (last 3' nucleoside missing)” returned a 3 h FOB score of 0.25 score 0-7.

For “RNA1{[moe](A)[sp].[moe](G)p.[moe]([m5C])p.[moe](T)p.[moe](T)p.[moe](A)p.d(G)[sp].d(A)[sp].d(G)[sp].d(T)[sp].d(T)[sp].d(T)[sp].d(T)[sp].d(T)[sp].d(G)[sp].d([m5C])[sp].[moe]([m5C])p.[moe](T)[sp].[moe](T)}$$$$ (last 3' nucleoside missing)”, the 3 h FOB score was found to be 5 score 0-7.

In turn, “RNA1{[moe](T)[sp].[moe](T)p.[moe](T)p.[moe](T)p.[moe]([m5C])[sp].d(T)[sp].d([m5C])[sp].d(A)[sp].d(T)[sp].d(G)[sp].d(T)[sp].d(G)[sp].d([m5C])[sp].[moe](G)p.[moe](G)p.[moe]([m5C])[sp].[moe](A)}$$$$ (last 3' nucleoside missing)” registered a 3 h FOB score of 5.5 score 0-7.
